From PMC3963473, “Structure–Activity Relationship Studies of Pyrrolone Antimalarial Agents” (Chemmedchem, 2013)
≈ marks a conversion by molar mass, not a printed value. Read-outs that look alike come from different tables or passages of the source.

What was measured:
[1] = system: green fluorescent protein (GFP)-transfected Plasmodium berghei ANKA; type: in vivo; details: for [%] Reduction parasitaemia: mice, 10 % DMSO in water; for Survival: in vivo
Method: In vivo efficacy studies: The protocols are described in the Supporting Information. In vivo efficacy studies in mice were conducted at the Swiss Tropical & Public Health Institute (Basel, Switzerland) according to the rules and regulations for the protection of animal rights (“Tierschutzverordnung”) of the Swiss “Bundesamt für Veterinärwesen”. They were approved by the veterinary office of Canton Basel-Stadt, Switzerland.
C. In vivo antimalarial efficacy studies (4 days treatment).2
In vivo antimalarial activity was assessed basically as previously described. Groups of […]
erythrocytes on day 0 with GFP-transfected P. berghei strain ANKA. .Unless otherwise indicated compounds were formulated in 100% DMSO, diluted 10-fold in distilled water and administered intraperitoneally or orally in a volume of 10 mL kg-1 on four consecutive days (4, 24, 48 and 72 h post infection). Parasitemia was determined on day 4 post infection (24 h after last treatment) by FACS analysis. Activity was calculated as the difference between the mean per cent parasitaemia for the control (n=5 mice) and treated groups expressed as a per cent relative to the control group. The survival time in days was also recorded up to 30 days after infection. A compound was considered curative if the animal survived to day 30 after infection with no detectable parasites. All protocols and procedures used in the current study were reviewed and approved by the local veterinary authorities of the Canton Basel-Stadt.

[2] = system: L6 cells; assay: In vitro cytotoxicity assay in L6 cells (Alamar Blue); type: cell-based; details: Rattus norvegicus, mean of two independent assays, read-out: EC50 L6 cells
Method: (§1) V. Design and Results of the in vitro & in vivo Studies.
A. Drug inhibition of in vitro cultured P. falciparum parasite:2 All in vitro assays were carried out twice independently. In vitro activity against the erythrocytic stages of P. […]
B. In vitro cytotoxicity assay:2 Assays were performed in 96-well microtiter plates, each […]
mM) and 10% fetal bovine serum, and 4 x 10^4 L-6 cells (a primary cell line derived from rat skeletal myoblasts). Serial drug dilutions of seven 3-fold dilution steps covering a range […]
After 72 h of incubation the plates were inspected […]
of Alamar Blue was then added to each well and the plates incubated for another 2 h.
Then the plates were read with a Spectramax Gemini XS microplate fluorometer (Molecular Devices Cooperation, Sunnyvale, CA, USA) using an excitation wave length of […]
Data were analysed using the microplate reader software Softmax Pro (Molecular Devices Cooperation, Sunnyvale, CA, USA).

[3] = Aqueous solubility estimated by nephelometry; type: physicochemical; details: kinetic from dmso stock
Method: III. Physicochemical Evaluation […]
Solubility Estimation: Aqueous solubility was estimated by nephelometry.
Compound in DMSO was spiked into either water, pH 6.5 phosphate buffer or 0.01N HCl
(approx. pH 2.0) with the final DMSO concentration being 1%. Samples were then
analyzed by Nephelometry to determine the solubility range as described previously.1

[4] = system: Plasmodium falciparum K1; assay: microbe, parasite or virus in culture; type: cell-based; details: for EC50: Plasmodium falciparum, K1, read-out: EC50 P. falc.
Method: as §1
A. Drug inhibition of in vitro cultured P. falciparum parasite:2 All in vitro assays were carried out twice independently. In vitro activity against the erythrocytic stages of P. falciparum was determined by using a 3H-hypoxanthine incorporation assay,5-6 using the […]
were dissolved in DMSO at 10 mg/mL and added to parasite cultures incubated in RPMI […]
haematocrit (0.3% parasitaemia). Serial doubling dilutions of each drug were prepared in […]
After 48 h, 50 µL of 3H-hypoxanthine (= 0.5 µCi) was added to each well of the plate. The plates were incubated for an additional 24 h under the same conditions. The plates were then harvested with a Betaplate cell harvester (Wallac, Zurich, Switzerland), and the red blood cells were transferred onto a glass fiber filter and then washed with distilled water. The dried filters were inserted into a plastic foil with 10 mL of scintillation fluid and were counted in a Betaplate™ liquid scintillation counter (Wallac, Zurich, […]

[5] = system: Plasmodium berghei; parameters: method as in PMID 23517371; details: P. berghei mouse model; dosed intraperitoneally; cited from earlier work
[6] = Table 1, A-ring variants, mammalian L6 cells
[7] = Table 1, water, nephelometry, 1% DMSO, read-out: Solubility water
[8] = Table 2, C-ring variants, L6 cells
[9] = Table 2, water, read-out: Solubility water

Structure (SMILES): CCOC(=O)C1=C(C)N/C(=C/c2cc(C)n(C3CCN(Cc4ccc(C(F)(F)F)nc4)CC3)c2C)C1=O [Compound 43]
- [%] Reduction parasitaemia ([1]; 50 mg kg^−1 day^−1 ip): 10.0%
- activity in vivo (in words) ([1]; 50 mg/kg ip and 100 mg/kg po): failed to show significant activity in vivo
- [%] Reduction parasitaemia ([1]; 100 mg kg^−1 day^−1 po): 0.0%
- Survival ([1]; ip): 4 days
- Survival ([1]; po): 4 days
- EC50 [2, 6]: 49000 nM
- solubility [3, 7]: > 125 µM
- EC50 [4]: 4 nM

Structure (SMILES): Cc1cc(/C=C2/Nc3ccn(Cc4ccncc4)c(=O)c3C2=O)c(C)n1-c1ccccc1C(F)(F)F [Compound 64]
- melting point: 215 to 240 °C
- EC50 [2, 8]: 38000 nM
- solubility [3, 9]: > 125 µM
- EC50 [4]: 77 nM

Structure (SMILES): CCOC(=O)C1=C(C)N/C(=C/c2cc(C)n(C3CCN(Cc4ccccc4)CC3)c2C)C1=O [Compound 17, (E)-Ethyl 5-((1-(1-benzylpiperidin-4-yl)-2,5-dimethyl-1H-pyrrol-3-yl)methylene)-2-methyl-4-oxo-4,5-dihydro-1H-pyrrole-3-carboxylate]
- melting point: 150 to 155 °C
- EC50 [2, 6]: 20000 nM
- solubility ([3]; aqueous buffer, pH 6.5 phosphate buffer, nephelometry, 1% DMSO, read-out: Solubility pH 6.5): 14 to 28 µM (≈ 6.27 to 12.5 µg/mL)
- solubility [3, 7]: > 125 µM
- solubility ([3]; simulated gastric fluid, pH 2.0 (0.01N HCl), nephelometry, 1% DMSO, read-out: Solubility pH 2.0): 56 to 110 µM (≈ 25.1 to 49.2 µg/mL)
- EC50 [4]: 35 nM

Structure (SMILES): Cc1cc(/C=C2/Nc3ccn(C)c(=O)c3C2=O)c(C)n1-c1ccccc1C(F)(F)F [Compound 57]
- [%] Reduction parasitaemia ([1]; 50 mg kg^−1 day^−1 ip): 99.9%
- [%] Reduction parasitaemia ([1]; 100 mg kg^−1 day^−1 po): 50.5%
- Survival ([1]; po): 8 days
- EC50 [2, 8]: 29000 nM
- solubility [3, 9]: > 125 µM
- EC50 [4]: 14 nM

Structure (SMILES): CCOC(=O)C1=C(C)N/C(=C/c2cc(C)n(C3CCN(C(C)c4ccccc4C(F)(F)F)CC3)c2C)C1=O (centres unmarked) [Compound 36]
- melting point: 138 to 142 °C
- EC50 [2, 6]: 3000 nM
- solubility [3, 7]: > 125 µM
- EC50 [4]: 1 nM

Structure (SMILES): CCOC(=O)C1=C(C)N/C(=C/c2cc(C)n(C3CCN(Cc4ccc(F)cc4C(F)(F)F)CC3)c2C)C1=O [Compound 44]
- melting point: 145 to 148 °C
- EC50 [2, 6]: 1200 nM
- solubility [3, 7]: > 125 µM
- EC50 [4]: 0.4 nM
- EC50 (P. falciparum K1) ([4]; values in nM): sub-nanomolar

Structure (SMILES): CCOC(=O)C1=C(C)N/C(=C/c2cc(C)n(C3CCN(Cc4cocn4)CC3)c2C)C1=O [Compound 48]
- melting point: 180 to 182 °C
- EC50 [2, 6]: 160 nM
- solubility [3, 7]: > 125 µM
- EC50 [4]: 18 nM

Structure (SMILES): CCn1ccc2c(c1=O)C(=O)/C(=C\c1cc(C)n(-c3ccccc3C(F)(F)F)c1C)N2 [Compound 58]
- melting point: 204 to 205 °C
- EC50 [2, 8]: 36000 nM
- solubility [3, 9]: > 125 µM
- EC50 [4]: 21 nM

Structure (SMILES): CCOC(=O)C1=C(C)N/C(=C/c2cc(C)n(C3CCN(CC4CCCCC4)CC3)c2C)C1=O [Compound 40]
- melting point: 184 to 186 °C
- EC50 [2, 6]: 13000 nM
- solubility [3, 7]: > 125 µM
- EC50 [4]: 16 nM

Structure (SMILES): Cc1cc(/C=C2/Nc3cc[nH]c(=O)c3C2=O)c(C)n1-c1ccccc1C(F)(F)F [Compound 56]
- [%] Reduction parasitaemia ([1]; 50 mg kg^−1 day^−1 ip): 21.8%
- [%] Reduction parasitaemia ([1]; 100 mg kg^−1 day^−1 po): 13.6%
- Survival ([1]; ip): 4 days
- Survival ([1]; po): 4 days
- EC50 [2, 8]: 54000 nM
- solubility [3, 9]: > 125 µM
- EC50 [4]: 47 nM

Structure (SMILES): CCOC(=O)C1=C(C)N/C(=C/c2cc(C)n(-c3ccccc3C(F)(F)F)c2C)C1=O [TDR32750]
- depression of parasitaemia [5]: > 99%
